Our source for the IC50 values is patent US20060135773A1, “Trisubstituted nitrogen modulators of tyrosine phosphatases” (priority 2004, published 2006).

The term IC50 denotes the concentration that inhibits the measured activity by half.

The target of this test is T1, PTP-1B (Homo sapiens, UniProt P18031).
T1 construct: PTP-1B (purified, 1 mg/mL) as a 1:250 dilution
T1 sequence (P18031 1-321 limits assumed): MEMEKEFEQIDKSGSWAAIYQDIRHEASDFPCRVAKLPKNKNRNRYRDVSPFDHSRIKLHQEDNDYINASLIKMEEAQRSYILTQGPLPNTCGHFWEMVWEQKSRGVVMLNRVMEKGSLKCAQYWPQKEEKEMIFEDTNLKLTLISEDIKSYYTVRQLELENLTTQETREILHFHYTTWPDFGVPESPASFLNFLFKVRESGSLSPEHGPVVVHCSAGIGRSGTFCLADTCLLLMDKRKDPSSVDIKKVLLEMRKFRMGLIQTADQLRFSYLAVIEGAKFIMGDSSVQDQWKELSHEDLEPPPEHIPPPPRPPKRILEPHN
Briefly: pNPP tyrosine phosphatase inhibition assay, PTP-1B. Type of test: biochemical. Conditions: pNPP assay, PTP-1B; read-out: Activity Class (IC50 ranges). Here is the method: The compounds provided herein are evaluated for biological activity as inhibitors of PTP-1B using, for example, a pNPP assay can be used to screen compounds for tyrosine phosphatase inhibitory activity as described in the Examples.
A 5× stock of pNPP (p-nitrophenol phosphate) substrate is prepared as 50 mM pNPP in assay buffer. Various tyrosine phosphatase solutions can be prepared as follows: • PTP-1B (purified, 1 mg/mL) as a 1:250 dilution (to a final concentration of 4:g/mL); • TC-PTP (NEB, 1000 units in 100:L) as a 1:50 dilution (to a final concentration of 2U/10:L (4:g/mL)); • CD45 (Calbiochem, 20:g, 400 units in 100:L) as a 1:50 dilution (to a final concentration of 0.8U/10:L (4:g/mL)); • LAR (NEB, 1000 units in 200:L) as a 1:75 dilution (to a final concentration of 0.7U/10:L (4:g/mL)); and • PTP-β (UBI, #14-350, 10,000 units, 40:g/571:L) as a 1:17.5 dilution (to a final concentration of 10U/10:L (4:g/mL));
The compound to be tested is prepared as 1:16.7 and 1:50 dilutions from stock in a total volume of […] DMSO to give final concentrations of 626 and 200:M. The reaction mixtures are prepared in a 96-well microtiter plate (on ice) as 55:L assay buffer, 5:L of the diluted compound (to a final concentration of 31.3 and 10:M), 20:L of the pNPP substrate solution (to a final concentration of 10 mM) and 20:L PTPase in assay buffer. The reactants are mixed well, the plate placed in a water bath at 30° C. and incubated for 10 minutes. The reaction is then terminated by adding 100:L of 2M K2CO3 per well, and the absorbance is measured at 405 nm by conventional means.
Unless otherwise indicated, this assay was used to determine activity for the selected compounds whose activity is provided in Table 1.
For the molecule `COc1ccccc1S(=O)(=O)N(Cc1ccc(C#N)cc1)Cc1ccc(C=CC(=O)O)c(Br)c1` [Compound 120, 3-{2-Bromo-4-[N-(4-cyanobenzyl)-N-(2-methoxy-benzenesulfonyl)aminomethyl]-phenyl}-acrylic acid], the IC50 is > 25 µM.
The value for `O=P(O)(O)C(F)(F)c1ccc(CN(Cc2ccc(C(F)(F)P(=O)(O)O)cc2)S(=O)(=O)c2ccc3ccccc3c2)cc1` [Compound 71, [(4-{[[4-(Difluoro-phosphono-methyl)-benzyl]-(naphthalene-2-sulfonyl)-amino]-methyl}-phenyl)-difluoro-methyl]-phosphonic acid] was 0.25 to 0.499 µM; that for `O=P(O)(O)C(F)(F)c1ccc(CN(Cc2ccc(C(F)(F)P(=O)(O)O)cc2)c2ccccc2)cc1` [Compound 64, {[4-({[4-(Difluoro-phosphono-methyl)-benzyl]-phenyl-amino}-methyl)-phenyl]-difluoro-methyl}-phosphonic acid] was 2.5 to 25 µM.
The value for `COc1ccccc1S(=O)(=O)N(Cc1ccc(Cl)c(Cl)c1)Cc1ccc(C(F)(F)P(=O)(O)O)c(Cl)c1` [Compound 146, [(2-Chloro-4-{[(3,4-dichloro-benzyl)-(2-methoxy-benzenesulfonyl)-amino]-methyl}-phenyl)-difluoro-methyl]-phosphonic acid] was 0.25 to 0.499 µM; that for `COc1ccccc1S(=O)(=O)N(Cc1ccc(C#N)cc1)Cc1ccc(C=CC(=O)O)cc1` [Compound 124, 3-{4-[N-(4-cyanobenzyl)-N-(2-methoxy-benzenesulfonyl)aminomethyl]-phenyl}-acrylic acid] was > 25 µM; that for “[(2-Chloro-4-{[(2-chloro-4-fluoro-benzenesulfonyl)-(3′-cyano-biphenyl-4-ylmethyl)-amino]-methyl}-phenyl)-difluoro-methyl]-phosphonic acid [Compound 164]” was < 0.099 µM.
The same measure for `COc1ccccc1S(=O)(=O)N(Cc1ccc(S(C)(=O)=O)cc1)Cc1ccc(C(F)(F)P(=O)(O)O)c(Br)c1` [Compound 108, [(2-Bromo-4-{[(4-methanesulfonyl-benzyl)-(2-methoxy-benzenesulfonyl)-amino]-methyl}-phenyl)-difluoro-methyl]-phosphonic acid]: 0.25 to 0.499 µM; for `COc1ccccc1S(=O)(=O)N(Cc1ccc(C(F)(F)P(=O)(O)O)c(Cl)c1)Cc1ccccc1-c1cccnc1` [Compound 179, [(2-Chloro-4-{[(2-methoxy-benzenesulfonyl)-(2-pyridin-3-yl-benzyl)-amino]-methyl}-phenyl)-difluoro-methyl]-phosphonic acid]: 0.1 to 0.249 µM.
In the case of `COc1ccccc1S(=O)(=O)N(Cc1ccc(C#N)cc1)Cc1ccc(C(O)C(O)C(=O)O)c(Br)c1` (centres unmarked) [Compound 123, 1,2-dihydroxy-3-{2-Bromo-4-[N-(4-cyanobenzyl)-N-(2-methoxy-benzenesulfonyl)aminomethyl]-phenyl}-propionic acid], the 50% inhibitory concentration (IC50) was > 25 µM.
With `O=P(O)(O)C(F)(F)c1ccc(CN(Cc2ccccc2-c2ccccc2)S(=O)(=O)c2cnccc2I)cc1Cl` [Compound 230, [(4-{[Biphenyl-2-ylmethyl-(4-iodo-pyridine-3-sulfonyl)-amino]-methyl}-2-chloro-phenyl)-difluoro-methyl]-phosphonic acid], the 50% inhibitory concentration (IC50) lay in the range of 0.1 to 0.249 µM.
The same measure for `O=P(O)(O)C(F)(F)c1ccc(CN(c2ccc(Cl)c(Cl)c2)S(=O)(=O)c2ccccc2)cc1Br` [Compound 34, [(4-{[Benzenesulfonyl-(3,4-dichloro-phenyl)-amino]-methyl}-2-bromo-phenyl)-difluoro-methyl]-phosphonic acid]: 0.25 to 0.499 µM; for `COc1ccccc1S(=O)(=O)N(Cc1ccc(C#N)cc1)Cc1ccc(Nc2c(O)c(=O)c2=O)cc1` [Compound 135, N-(4-Cyano-benzyl)-N-[4-(2-hydroxy-3,4-dioxo-cyclobut-1-enylamino)-benzyl]-2-methoxy-benzenesulfonamide]: > 25 µM; for `O=P(O)(O)C(F)(F)c1ccc(CN(Cc2ccc(Cl)c(Cl)c2)S(=O)(=O)c2ccccc2Cl)cc1Br` [Compound 82]: 0.1 to 0.249 µM.
The same measure for `O=P(O)(O)C(F)(F)c1ccc(CN(Cc2ccc(C(F)(F)P(=O)(O)O)cc2)S(=O)(=O)c2cccc(Cl)c2Cl)cc1` [Compound 91, {[4-({(2,3-Dichloro-benzenesulfonyl)-[4-(difluoro-phosphono-methyl)-benzyl]-amino}-methyl)-phenyl]-difluoro-methyl}-phosphonic acid]: 2.5 to 25 µM; for “3-{2-Bromo-4-[N-(4-cyanobenzyl)-N-(2-methoxy-benzenesulfonyl)aminomethyl]-phenoxy}-acetic acid [Compound 121]”: > 25 µM; for `COc1ccccc1S(=O)(=O)N(Cc1ccc(C(F)(F)P(=O)(O)O)cc1)Cc1ccc(C(F)(F)P(=O)(O)O)cc1` [Compound 85, [(4-{[[4-(Difluoro-phosphono-methyl)-benzyl]-(2-methoxy-benzenesulfonyl)-amino]-methyl}-phenyl)-difluoro-methyl]-phosphonic acid]: 0.25 to 0.499 µM.
The value for `COc1ccccc1S(=O)(=O)N(Cc1ccc(C#N)cc1)Cc1ccc(NC(=O)C(=O)O)cc1` [Compound 129, N-(4-(N-oxalylamino]benzyl)-N-(4-cyanobenzyl)-(2-methoxy)benzenesulfonamide] was > 25 µM; that for `O=P(O)(O)C(F)(F)c1ccc(CN(Cc2ccc(C(F)(F)P(=O)(O)O)cc2)S(=O)(=O)c2ccccc2)cc1` [Compound 60, {[4-({Benzenesulfonyl-[4-(difluoro-phosphono-methyl)-benzyl]-amino}-methyl)-phenyl]-difluoro-methyl}-phosphonic acid] was 0.25 to 0.499 µM.
In the case of `COc1ccccc1S(=O)(=O)N(Cc1ccc(C(F)(F)P(=O)(O)O)c(Br)c1)c1ccc(S(C)(=O)=O)cc1` [Compound 114, [(2-Bromo-4-{[(4-methanesulfonyl-phenyl)-(2-methoxy-benzenesulfonyl)-amino]-methyl}-phenyl)-difluoro-methyl]-phosphonic acid], the IC50 was in the range of 0.1 to 0.249 µM.
For the molecule “2,2-Dimethyl-propionic acid [(2-chloro-4-{[(3,4-dichloro-benzyl)-(2-methoxy-benzenesulfonyl)-amino]-methyl}-phenyl)-difluoro-methyl]-hydroxy-phosphinoyloxymethyl ester [Compound 150]”, the IC50 was in the range of 0.25 to 0.499 µM.
The same measure for `O=P(O)(O)C(F)(F)c1ccc(CN(Cc2ccc(C(F)(F)P(=O)(O)O)c(Br)c2)S(=O)(=O)c2ccccc2)cc1` [Compound 38, {[4-({Benzenesulfonyl-[4-(difluoro-phosphono-methyl)-benzyl]-amino}-methyl)-2-bromo-phenyl]-difluoro-methyl}-phosphonic acid]: < 0.099 µM; for `O=C(O)c1ccc(CN(Cc2ccc(C(=O)O)c(Br)c2)S(=O)(=O)c2ccccc2)cc1` [Compound 79, 2-bromo-4-([Benzenesulfonyl-(4-carboxybenzyl)-amino]-methyl)-benzoic acid]: > 25 µM; for `COc1ccccc1S(=O)(=O)N(Cc1ccc(C(F)(F)P(=O)(O)O)c(Cl)c1)Cc1ccccc1Br` [Compound 178, [(4-{[(2-Bromo-benzyl)-(2-methoxy-benzenesulfonyl)-amino]-methyl}-2-chloro-phenyl)-difluoro-methyl]-phosphonic acid]: 0.1 to 0.249 µM.
